The data set can be described thus: activity coefficient (dimensionless); of the first substance listed, at infinite dilution; xn = mol fraction of the nth substance listed. To be noted: 101 kPa, Liquid, Chromatography, x1 = 0.

± gives the expanded uncertainty stated by the source.

Take `C1=CCCC=C1` [1,3-cyclohexadiene] + CCCCCCCCCCCCCCCCCCC(CCCCCCCCCCCCCCCCCC)CCCCC(CCCCCCCCCCCCCCCCCC)CCCCCCCCCCCCCCCCCC: the activity coefficient reads like this: (373.15 K) 0.251 ± 0.036; (388.15 K) 0.253 ± 0.036; (403.15 K) 0.255 ± 0.036; (418.15 K) 0.252 ± 0.036; (433.15 K) 0.252 ± 0.036.
As to `C1=CCC=CC1` [1,4-cyclohexadiene] + CCCCCCCCCCCCCCCCCCC(CCCCCCCCCCCCCCCCCC)CCCCC(CCCCCCCCCCCCCCCCCC)CCCCCCCCCCCCCCCCCC, the activity coefficient runs as follows: (373.15 K) 0.242 ± 0.036; (388.15 K) 0.244 ± 0.036; (403.15 K) 0.242 ± 0.036; (418.15 K) 0.238 ± 0.036; (433.15 K) 0.238 ± 0.036.
For `C=CCCCCCCCC` [1-decene] + CCCCCCCCCCCCCCCCCCC(CCCCCCCCCCCCCCCCCC)CCCCC(CCCCCCCCCCCCCCCCCC)CCCCCCCCCCCCCCCCCC, the activity coefficient runs as follows: (373.15 K) 0.411 ± 0.034; (388.15 K) 0.413 ± 0.034; (403.15 K) 0.413 ± 0.034; (418.15 K) 0.416 ± 0.034; (433.15 K) 0.418 ± 0.034.
For `C#CCCCCCCCC` [1-decyne] + CCCCCCCCCCCCCCCCCCC(CCCCCCCCCCCCCCCCCC)CCCCC(CCCCCCCCCCCCCCCCCC)CCCCCCCCCCCCCCCCCC, the activity coefficient is 0.442 ± 0.033 (373.15 K); 0.446 ± 0.033 (388.15 K); 0.446 ± 0.033 (403.15 K); 0.446 ± 0.033 (418.15 K); 0.446 ± 0.033 (433.15 K).
As to `C=CCCCCCCCCCC` [1-dodecene] + CCCCCCCCCCCCCCCCCCC(CCCCCCCCCCCCCCCCCC)CCCCC(CCCCCCCCCCCCCCCCCC)CCCCCCCCCCCCCCCCCC, the activity coefficient by setting is: (373.15 K) 0.447 ± 0.033; (388.15 K) 0.449 ± 0.033; (403.15 K) 0.453 ± 0.033; (418.15 K) 0.453 ± 0.033; (433.15 K) 0.455 ± 0.033.
On to `C=CCCCCC` [1-heptene] + CCCCCCCCCCCCCCCCCCC(CCCCCCCCCCCCCCCCCC)CCCCC(CCCCCCCCCCCCCCCCCC)CCCCCCCCCCCCCCCCCC, for which the activity coefficient is 0.354 ± 0.035 (373.15 K); 0.355 ± 0.035 (388.15 K); 0.356 ± 0.035 (403.15 K); 0.357 ± 0.035 (418.15 K); 0.359 ± 0.035 (433.15 K).
In the case of `C#CCCCCC` [1-heptyne] + CCCCCCCCCCCCCCCCCCC(CCCCCCCCCCCCCCCCCC)CCCCC(CCCCCCCCCCCCCCCCCC)CCCCCCCCCCCCCCCCCC, the activity coefficient was 0.411 ± 0.034 (373.15 K); 0.407 ± 0.034 (388.15 K); 0.401 ± 0.034 (403.15 K); 0.399 ± 0.034 (418.15 K); 0.398 ± 0.034 (433.15 K).
For the compound `C#CCCCC` [1-hexyne] + CCCCCCCCCCCCCCCCCCC(CCCCCCCCCCCCCCCCCC)CCCCC(CCCCCCCCCCCCCCCCCC)CCCCCCCCCCCCCCCCCC, the activity coefficient was 0.39 ± 0.034 (373.15 K); 0.378 ± 0.034 (388.15 K); 0.37 ± 0.034 (403.15 K); 0.364 ± 0.035 (418.15 K); 0.36 ± 0.035 (433.15 K).
Regarding `C=CCCCCCCC` [1-nonene] + CCCCCCCCCCCCCCCCCCC(CCCCCCCCCCCCCCCCCC)CCCCC(CCCCCCCCCCCCCCCCCC)CCCCCCCCCCCCCCCCCC, the activity coefficient came to 0.392 ± 0.034 (373.15 K); 0.394 ± 0.034 (388.15 K); 0.395 ± 0.034 (403.15 K); 0.396 ± 0.034 (418.15 K); 0.398 ± 0.034 (433.15 K).
On to `C#CCCCCCCC` [1-nonyne] + CCCCCCCCCCCCCCCCCCC(CCCCCCCCCCCCCCCCCC)CCCCC(CCCCCCCCCCCCCCCCCC)CCCCCCCCCCCCCCCCCC, for which the activity coefficient reads like this: (373.15 K) 0.445 ± 0.033; (388.15 K) 0.443 ± 0.033; (403.15 K) 0.438 ± 0.033; (418.15 K) 0.431 ± 0.034; (433.15 K) 0.425 ± 0.034.
`C#CCCCCCC` [1-octyne] + CCCCCCCCCCCCCCCCCCC(CCCCCCCCCCCCCCCCCC)CCCCC(CCCCCCCCCCCCCCCCCC)CCCCCCCCCCCCCCCCCC: the activity coefficient reads like this: (373.15 K) 0.428 ± 0.034; (388.15 K) 0.424 ± 0.034; (403.15 K) 0.417 ± 0.034; (418.15 K) 0.412 ± 0.034; (433.15 K) 0.411 ± 0.034.
For `C=CCCCCCCCCCCCC` [1-tetradecene] + CCCCCCCCCCCCCCCCCCC(CCCCCCCCCCCCCCCCCC)CCCCC(CCCCCCCCCCCCCCCCCC)CCCCCCCCCCCCCCCCCC, the activity coefficient runs as follows: (373.15 K) 0.475 ± 0.033; (388.15 K) 0.476 ± 0.033; (403.15 K) 0.475 ± 0.033; (418.15 K) 0.476 ± 0.033; (433.15 K) 0.475 ± 0.033.
Consider `C=CCCCCCCCCCCC` [1-tridecene] + CCCCCCCCCCCCCCCCCCC(CCCCCCCCCCCCCCCCCC)CCCCC(CCCCCCCCCCCCCCCCCC)CCCCCCCCCCCCCCCCCC, for which the activity coefficient runs as follows: (373.15 K) 0.467 ± 0.033; (388.15 K) 0.466 ± 0.033; (403.15 K) 0.466 ± 0.033; (418.15 K) 0.467 ± 0.033; (433.15 K) 0.468 ± 0.033.
In the case of `C=CCCCCCCCCC` [1-undecene] + CCCCCCCCCCCCCCCCCCC(CCCCCCCCCCCCCCCCCC)CCCCC(CCCCCCCCCCCCCCCCCC)CCCCCCCCCCCCCCCCCC, the activity coefficient runs as follows: (373.15 K) 0.435 ± 0.033; (388.15 K) 0.436 ± 0.033; (403.15 K) 0.435 ± 0.033; (418.15 K) 0.436 ± 0.033; (433.15 K) 0.436 ± 0.033.
With `C1CCC2CCCC2C1` (stereo not given) [1H-indene, octahydro-] + CCCCCCCCCCCCCCCCCCC(CCCCCCCCCCCCCCCCCC)CCCCC(CCCCCCCCCCCCCCCCCC)CCCCCCCCCCCCCCCCCC, the activity coefficient was found to be 0.26 ± 0.036 (373.15 K); 0.268 ± 0.036 (388.15 K); 0.269 ± 0.036 (403.15 K); 0.266 ± 0.036 (418.15 K); 0.27 ± 0.036 (433.15 K).
Regarding `CC(C)C(C)(C)C` [2,2,3-trimethylbutane] + CCCCCCCCCCCCCCCCCCC(CCCCCCCCCCCCCCCCCC)CCCCC(CCCCCCCCCCCCCCCCCC)CCCCCCCCCCCCCCCCCC, the activity coefficient (373.15 K) turned out to be 0.34 ± 0.035; the activity coefficient (388.15 K) turned out to be 0.345 ± 0.035; the activity coefficient (403.15 K) came out at 0.348 ± 0.035; the activity coefficient (418.15 K) amounted to 0.349 ± 0.035; the activity coefficient (433.15 K) is 0.355 ± 0.035.
As for `CC(C)CC(C)(C)C` [2,2,4-trimethylpentane] + CCCCCCCCCCCCCCCCCCC(CCCCCCCCCCCCCCCCCC)CCCCC(CCCCCCCCCCCCCCCCCC)CCCCCCCCCCCCCCCCCC, the activity coefficient reads like this: (373.15 K) 0.397 ± 0.034; (388.15 K) 0.401 ± 0.034; (403.15 K) 0.401 ± 0.034; (418.15 K) 0.405 ± 0.034; (433.15 K) 0.406 ± 0.034.
For the compound `CC(C)C(C)C(C)C` [2,3,4-trimethylpentane] + CCCCCCCCCCCCCCCCCCC(CCCCCCCCCCCCCCCCCC)CCCCC(CCCCCCCCCCCCCCCCCC)CCCCCCCCCCCCCCCCCC, the activity coefficient is, setting by setting: (373.15 K) 0.353 ± 0.035; (388.15 K) 0.356 ± 0.035; (403.15 K) 0.358 ± 0.035; (418.15 K) 0.36 ± 0.035; (433.15 K) 0.362 ± 0.035.
In the same order, the values of `CCC(C)CC(C)C` (stereo not given) [2,4-dimethylhexane] + CCCCCCCCCCCCCCCCCCC(CCCCCCCCCCCCCCCCCC)CCCCC(CCCCCCCCCCCCCCCCCC)CCCCCCCCCCCCCCCCCC are 0.394 ± 0.034, 0.396 ± 0.034, 0.396 ± 0.034, 0.398 ± 0.034 and 0.405 ± 0.034.
Take `CC(C)CC(C)C` [2,4-dimethylpentane] + CCCCCCCCCCCCCCCCCCC(CCCCCCCCCCCCCCCCCC)CCCCC(CCCCCCCCCCCCCCCCCC)CCCCCCCCCCCCCCCCCC: the activity coefficient (373.15 K) stood at 0.391 ± 0.034; the activity coefficient (388.15 K) is 0.392 ± 0.034; the activity coefficient (403.15 K) was found to be 0.394 ± 0.034; the activity coefficient (418.15 K) was 0.396 ± 0.034; the activity coefficient (433.15 K) was found to be 0.4 ± 0.034.
In the case of `CC#CCCC` [2-hexyne] + CCCCCCCCCCCCCCCCCCC(CCCCCCCCCCCCCCCCCC)CCCCC(CCCCCCCCCCCCCCCCCC)CCCCCCCCCCCCCCCCCC, the activity coefficient (373.15 K) amounted to 0.378 ± 0.034; the activity coefficient (388.15 K) worked out at 0.377 ± 0.034; the activity coefficient (403.15 K) is 0.377 ± 0.034; the activity coefficient (418.15 K) worked out at 0.378 ± 0.034; the activity coefficient (433.15 K) was 0.38 ± 0.034.
Turning to `CCC(C)C(C)CC` (stereo not given) [3,4-dimethylhexane] + CCCCCCCCCCCCCCCCCCC(CCCCCCCCCCCCCCCCCC)CCCCC(CCCCCCCCCCCCCCCCCC)CCCCCCCCCCCCCCCCCC, the activity coefficient was 0.353 ± 0.035 (373.15 K); 0.357 ± 0.035 (388.15 K); 0.36 ± 0.035 (403.15 K); 0.362 ± 0.035 (418.15 K); 0.366 ± 0.035 (433.15 K).
Consider `CCC#CCC` [3-hexyne] + CCCCCCCCCCCCCCCCCCC(CCCCCCCCCCCCCCCCCC)CCCCC(CCCCCCCCCCCCCCCCCC)CCCCCCCCCCCCCCCCCC, for which the activity coefficient (373.15 K) worked out at 0.404 ± 0.034; the activity coefficient (388.15 K) amounted to 0.406 ± 0.034; the activity coefficient (403.15 K) turned out to be 0.406 ± 0.034; the activity coefficient (418.15 K) was found to be 0.417 ± 0.034; the activity coefficient (433.15 K) was 0.419 ± 0.034.
`CCCC#CCCC` [4-octyne] + CCCCCCCCCCCCCCCCCCC(CCCCCCCCCCCCCCCCCC)CCCCC(CCCCCCCCCCCCCCCCCC)CCCCCCCCCCCCCCCCCC: the activity coefficient (373.15 K) turned out to be 0.436 ± 0.033; the activity coefficient (388.15 K) worked out at 0.429 ± 0.034; the activity coefficient (403.15 K) came out at 0.424 ± 0.034; the activity coefficient (418.15 K) was 0.421 ± 0.034; the activity coefficient (433.15 K) worked out at 0.416 ± 0.034.
In the case of `C1C2CC3CC1CC(C2)C3` [adamantane] + CCCCCCCCCCCCCCCCCCC(CCCCCCCCCCCCCCCCCC)CCCCC(CCCCCCCCCCCCCCCCCC)CCCCCCCCCCCCCCCCCC, the activity coefficient came to 0.337 ± 0.035 (373.15 K); 0.339 ± 0.035 (388.15 K); 0.337 ± 0.035 (403.15 K); 0.342 ± 0.035 (418.15 K); 0.343 ± 0.035 (433.15 K).

Source of the values: the NIST ThermoML archive (doi:10.1016/j.fluid.2006.07.015).
